Data reported in PMC11358092, “Caspofungin enhances the potency of rifampin against Gram-negative bacteria” (Frontiers in Microbiology, 2024).
Structures can show the parent of a compound that is named as a salt.

test system: E. coli MG1655; experiment: High-throughput screening of FDA-approved drug library for antibiotic adjuvants (growth inhibition, OD600); format: cell-based, Escherichia coli; details: library drug alone, LB medium, 96-well, 8 h static culture at 37°C, relative to PMBN (positive) and DMSO (negative) controls, %, table head prints no unit
Procedure: To screen for antibiotic adjuvants against GNB, […] library drugs or polymyxin B nonapeptide (PMBN, positive control) or dimethyl sulfoxide (DMSO, negative control). After 8 h of static culture at 37°C, the optical density at 600 nm (OD600) was measured using a microplate reader. Percentage inhibition was calculated as (ODN – ODX)/(ODN – ODP) × 100%, where ODX is the OD600 value for a test treated with drug X, and ODP and ODN are the OD600 values for the positive and negative control, respectively.

SMILES | Growth inhibition, Compound
CN1C[C@@H]2C[C@H]1CN2c1cc2c(cc1F)c(=O)c(C(=O)O)cn2C1CC1.CS(=O)(=O)O [Danofloxacin mesylate] | 100%
Oc1c(I)cc(Cl)c2cccnc12 [Clioquinol] | 94%
c1cnc2c(c1)ccc1cccnc12 [o-Phenanthroline] | 79%
NC(=O)N/N=C/c1ccc([N+](=O)[O-])o1 [Furacilin] | 76%
Cn1nnnc1SCC1=C(C(=O)O)N2C(=O)[C@@H](NC(=O)[C@H](OC=O)c3ccccc3)[C@H]2SC1 [Cefamandole nafate] | 88%
C/C(=C\C(=O)OCCCCCCCCC(=O)[O-])C[C@@H]1OC[C@H](C[C@@H]2O[C@H]2[C@@H](C)[C@H](C)O)[C@@H](O)[C@H]1O.C/C(=C\C(=O)OCCCCCCCCC(=O)[O-])C[C@@H]1OC[C@H](C[C@@H]2O[C@H]2[C@@H](C)[C@H](C)O)[C@@H](O)[C@H]1O.O.O.[Ca+2] [Mupirocin calcium] | 96%
Cc1ccc2c(Cl)cc(Cl)c(O)c2n1 [Chloquinan] | 119%
O=C(Nc1cc(Cl)cc(Cl)c1O)c1c(O)c(Cl)cc(Cl)c1Cl [Oxyclozanide] | 52%
CCn1nc(C(=O)O)c(=O)c2cc3c(cc21)OCO3 [Cinoxacin] | 88%
NCC[C@H](O)C(=O)N[C@@H]1C[C@H](N)[C@@H](O[C@H]2O[C@H](CN)[C@@H](O)[C@H](O)[C@H]2O)[C@H](O)[C@H]1O[C@H]1O[C@H](CO)[C@@H](O)[C@H](N)[C@H]1O.O=S(=O)(O)O.O=S(=O)(O)O [Amikacin disulfate] | 108%
Cc1cc(CC(C)CC(C)(C)C)n(O)c(=O)c1.NCCO (stereo not drawn) [Piroctone olamine] | 54%
Cc1ccc(S(=O)(=O)O)cc1.NC1CCN(c2nc3c(cc2F)c(=O)c(C(=O)O)cn3-c2ccc(F)cc2F)C1.O (stereo not drawn) [Tosufloxacin p-Toluenesulfonate Hydrate] | 99%
C[C@@H]1CN(c2c(F)c(F)c3c(=O)c(C(=O)O)cn(C4CC4)c3c2F)C[C@H](C)N1 [Orbifloxacin] | 113%
CCn1cc(C(=O)O)c(=O)c2cc(F)c(N3CCNCC3)nc21 [Enoxacin] | 109%
CN[C@@H]1[C@@H](O)[C@@H](O[C@@H]2[C@@H](O)[C@H](O[C@H]3O[C@H](CN)[C@@H](O)[C@H](O)[C@H]3O)[C@@H](N)C[C@H]2NC(=O)[C@@H](O)CN)OC[C@]1(C)O [Isepamicin sulfate] | 108%
CO[C@@]1(NC(=O)C2SC(=C(C(N)=O)C(=O)O)S2)C(=O)N2C(C(=O)O)=C(CSc3nnnn3C)CS[C@@H]21 (stereo partly drawn) [Cefotetan] | 97%
C[C@@H](O)[C@H]1C(=O)N2C(C(=O)O)=C(S[C@@H]3CN[C@H](C(=O)N(C)C)C3)[C@H](C)[C@H]12 [Meropenem] | 90%
CC1(C)S[C@@H]2[C@H](NC(=O)[C@H](NC(=O)N3CCN(S(C)(=O)=O)C3=O)c3ccccc3)C(=O)N2[C@H]1C(=O)O [Mezlocillin Sodium] | 89%
NC[C@H]1O[C@H](O[C@H]2[C@H](O)[C@@H](O[C@H]3O[C@H](CO)[C@@H](O)[C@H](N)[C@H]3O)[C@H](N)C[C@@H]2N)[C@H](N)[C@@H](O)[C@@H]1O [Bekanamycin] | 106%

SMILES | Growth inhibition, Compound
CO/N=C(/C(=O)N[C@@H]1C(=O)N2C(C(=O)O)=C(CSC(=O)c3ccco3)CS[C@H]12)c1csc(N)n1.Cl [Ceftiofur hydrochloride] | 84%
CN(C)[C@@H]1C(O)=C(C(N)=O)C(=O)[C@@]2(O)C(O)=C3C(=O)c4c(O)cccc4[C@@](C)(O)[C@H]3[C@H](O)[C@@H]12 [Oxytetracycline] | 66%
C=CC1=C(C(=O)O)N2C(=O)[C@@H](NC(=O)/C(=N\O)c3csc(N)n3)[C@H]2SC1 [Cefdinir] | 100%
O=c1[nH]c(=O)n([C@H]2C[C@H](O)[C@@H](CO)O2)cc1F [Floxuridine] | 87%
Nc1n[n+]([O-])c2ccccc2[n+]1[O-] [Tirapazamine] | 114%
[H]/N=C(\N/C(=N/[H])NCCCCCCNC(=N)NC(=N)Nc1ccc(Cl)cc1)Nc1ccc(Cl)cc1 [Chlorhexidine Acetate] | 103%
Cl.O=C1OC(CN2CCOCC2)CN1/N=C/c1ccc([N+](=O)[O-])o1 (stereo not drawn) [Furaltadone hydrochloride] | 115%
C[C@@H](O)[C@H]1C(=O)N2C(C(=O)[O-])=C([C@H]3CCCO3)S[C@H]12.[Na+] [Faropenem sodium] | 100%
Cl.NC1CCN(c2nc3c(cc2F)c(=O)c(C(=O)O)cn3-c2ccc(F)cc2F)C1 (stereo not drawn) [Tosufloxacin hydrochloride] | 103%
CN1CCN(c2c(F)cc3c(=O)c(C(=O)O)cn4c3c2OCN4C)CC1 [Marbofloxacin] | 108%
Cc1oc(=O)oc1CN1CCN(c2cc3c(cc2F)c(=O)c(C(=O)O)c2n3C(C)S2)CC1 (stereo not drawn) [Prulifloxacin] | 100%
C[C@H]1c2cccc(O)c2C(=O)C2=C(O)[C@]3(O)C(=O)C(C(N)=O)=C(O)[C@@H](N(C)C)[C@@H]3[C@@H](O)[C@@H]21 [Doxycycline] | 118%
[H]/N=C(/NCCCCC)N/N=C/c1c[nH]c2ccc(OC)cc12 [Tegaserod maleate] | 85%
CC[C@H]1OC(=O)[C@H](C)[C@@H](O[C@H]2C[C@@](C)(OC)[C@@H](O)[C@H](C)O2)[C@H](C)[C@@H](O[C@@H]2O[C@H](C)C[C@H](N(C)C)[C@H]2O)[C@](C)(O)C[C@@H](C)C(=O)[C@H](C)[C@H]2OC(=O)O[C@@]21C [Davercin] | 114%
CN[C@@H]1[C@@H](O)[C@@H](O[C@@H]2[C@@H](O)[C@H](O[C@H]3O[C@H]([C@@H](C)NC)CC[C@H]3N)[C@@H](N)C[C@H]2N)OC[C@]1(C)O.O=S(=O)(O)O [Gentamycin sulfate] | 110%
CO/N=C(\C(=O)N[C@@H]1C(=O)N2C(C(=O)O)=C(CSc3nc(=O)c(=O)[nH]n3C)CS[C@H]12)c1csc(N)n1 [Ceftriaxone sodium] | 114%
Nc1nc(/C(=C/CC(=O)O)C(=O)N[C@@H]2C(=O)N3C(C(=O)O)=CCS[C@H]23)cs1.O.O [Ceftibuten dihydrate] | 84%
Cc1cc(C2CCCCC2)n(O)c(=O)c1 [Ciclopirox] | 70%
C[C@H]1COc2c(N3CCN(C)CC3)c(F)cc3c(=O)c(C(=O)O)cn1c23 [Levofloxacin hydrochloride] | 110%

SMILES | Growth inhibition, Compound
Nc1nc(/C(=N/O)C(=O)N[C@@H]2C(=O)N3C(C(=O)O)=C(/C=C4\CCN([C@@H]5CCNC5)C4=O)CS[C@H]23)ns1 [Ceftobiprole] | 107%
CC1(C)S[C@@H]2[C@H](NC(=O)[C@H](N)c3ccccc3)C(=O)N2[C@H]1C(=O)OCOC(=O)[C@@H]1N2C(=O)C[C@H]2S(=O)(=O)C1(C)C [Sultamicillin Tosylate] | 93%
CN(C)[C@@H]1C(O)=C(C(N)=O)C(=O)[C@@]2(O)C(O)=C3C(=O)c4c(O)cccc4[C@@](C)(O)C3[C@H](O)C12.Cl (stereo partly drawn) [Aquacycline] | 110%
CC1(C)S[C@@H]2[C@H](NC(=O)C(c3ccccc3)S(=O)(=O)O)C(=O)N2[C@H]1C(=O)O.[Na].[Na] (stereo partly drawn) [Sulbenicillin Sodium] | 90%
Cn1nnc(-c2ccc(-c3ccc(N4C[C@H](CO)OC4=O)cc3F)cn2)n1 [Torezolid] | 61%
CO[C@H]1/C=C/O[C@@]2(C)Oc3c(C)c(O)c4c(O)c(c(/C=N/N5CCN(C6CCCC6)CC5)c(O)c4c3C2=O)NC(=O)/C(C)=C\C=C\[C@H](C)[C@H](O)[C@@H](C)[C@@H](O)[C@@H](C)[C@H](OC(C)=O)[C@@H]1C [Rifapentine] | 99%
Cc1cc(C2CCCCC2)n(O)c(=O)c1.NCCO [Ciclopirox ethanolamine] | 114%
C[C@@H](O)[C@H]1C(=O)N2C(C(=O)O)=C(S[C@@H]3CN[C@H](CNS(N)(=O)=O)C3)[C@H](C)[C@H]12 [Doripenem] | 95%
CC1(C)S[C@@H]2[C@H](NC(=O)[C@H](NC(=O)N3CCNC3=O)c3ccccc3)C(=O)N2[C@H]1C(=O)O [Azlocillin sodium] | 94%
Oc1c(Br)cc(Br)c2cccnc12 [Broxyquinoline] | 103%
COc1c(N2CCNC(C)C2)c(F)cc2c(=O)c(C(=O)O)cn(C3CC3)c12 (stereo not drawn) [Gatifloxacin] | 100%
O=C(Nc1ccc([N+](=O)[O-])cc1Cl)c1cc(Cl)ccc1O [Niclosamide] | 45%
CO/N=C(\C(=O)N[C@@H]1C(=O)N2C(C(=O)O)=C(COC(C)=O)CS[C@H]12)c1csc(N)n1 [Cefotaxime] | 113%
CC[C@H]1OC(=O)[C@H](C)[C@@H](O[C@H]2C[C@@](C)(OC)[C@@H](O)[C@H](C)O2)[C@H](C)[C@@H](O[C@@H]2O[C@H](C)C[C@H](N(C)C)[C@H]2O)[C@](C)(OC)C[C@@H](C)C(=O)[C@H](C)[C@@H](O)[C@]1(C)O [Clarithromycin] | 50%
[O-][n+]1ccccc1SSc1cccc[n+]1[O-] [Dipyrithione] | 104%
CO[C@@]1(NC(=O)Cc2cccs2)C(=O)N2C(C(=O)O)=C(COC(N)=O)CS[C@@H]21 [Cefoxitin sodium] | 78%
CC1(C)S[C@@H]2[C@H](NC(=O)[C@H](N)c3ccccc3)C(=O)N2[C@H]1C(=O)O [Ampicillin sodium] | 91%
OB1OCc2cc(F)ccc21 [Tavaborole] | 91%
NC1CCN(c2nc3c(cc2F)c(=O)c(C(=O)O)cn3-c2ccc(F)cc2F)C1 (stereo not drawn) [Tosufloxacin] | 106%
